Laboratory results reported in patent publication US20250127165A1, “USE OF 2-AMINO-3-PHENYLBUTYRIC ACID OR 2,6-DIAMINO-3-METHYLHEXANOIC ACID AS PLANT IMMUNE RESISTANCE INDUCER” (NANJING TIANNONG BIOTECHNOLOGY CO., LTD., priority 2021, published 2025).

Tests used:
ryegrass = test: Induced resistance of ryegrass to high temperature stress; type: in vivo; conditions: for heat injury index (%): 45° C. 12 h, 7 days recovery
Experimental: 2,6-diamino-3-methylhexanoic acid was dissolved in distilled water and then gradiently diluted with distilled water into solutions of 1 nM, 10 nM, 100 nM, and 1,000 nM, and a blank control was set up, while 0.02% Tween 20 was added as surfactant. Four groups of replicates were set up for each concentration, and set up a blank control at room temperature. Ryegrass seeds were weighed and planted in a pot with a diameter of 8.5 cm at 0.8 g per pot, and transferred to a greenhouse with a temperature of 25° C., a humidity of 60%-70%, and a light intensity of 200 μmol m^−2s^−1 (12 h light/12 h darkness). After 7 days of growth, ryegrass was treated by spraying 2,6-diamino-3-methylhexanoic acid solution on the leaf surface, and spraying twice within 24 hours. 24 hours after the second spray, the plants were transferred to a light incubator at 45° C. for high temperature stress treatment. After 12 hours of treatment, they were removed and transferred to a greenhouse at 25° C. for 7 days for recovery. The injured conditions of the plants were observed and the grade of hot injury was calculated, where the grading standard of heat injury is shown in Table 8, and the formula for calculating the heat injury index is as follows.

lysine monooxygenase = conditions: Ohnishi et al., 1976; cited from earlier work
wheat = test: Induced resistance of wheat to drought stress (25% PEG-6000); type: in vivo; conditions: for drought injury index (%) / dry weight (g) aboveground part / dry weight (g) underground part / fresh weight (g) aboveground part / fresh weight (g) underground part / length of root (cm): 6 days drought stress, 7 days recovery
Experimental: Wheat was hydroponic cultured in a 6-mesh sieve used as a container at 50 grains per sieve, and ½ Hoagland nutrient solution was changed every three days. When the wheat grew to the stage of two leaves and one bud, 2-amino-3-phenylbutyric acid solution was sprayed on the leaf surface, and the concentration of 2-amino-3-phenylbutyric acid was 0, 100 and 1,000 nM, and 0.02% Tween 20 was added as surfactant. After two days of continuous spraying, the hydroponic nutrient solution was replaced with ½ Hoagland nutrient solution containing 25% PEG-6000 on the 3rd day for stress treatment. After 6 days of drought stress, rehydration treatment was conducted. And after 7 days of recovery growth in normal nutrient solution, the drought injury index was observed and determined, and the root length and biomass were determined.
The performance characteristics of drought injury of leaves are similar to those of salt injury. The rate of drought injury and the drought injury index are introduced by using the evaluation indexes of salt injury. The formula for calculating the drought injury index is as follows, and the grading standard of drought injury is shown in Table 15.

arthritis in rats = conditions: 100 mg/kg and 200 mg/kg; Ren et al., 2019; cited from earlier work
Leuconostoc dextranicum = conditions: Edelson & Keeley, 1963; cited from earlier work
wheat powdery mildew = test: Field trial of induced resistance of wheat to powdery mildew; type: in vivo; conditions: 1,000 nM, field spray
Experimental: A solution of 2-amino-3-phenylbutyric acid at a concentration of 1,000 nM (with 0.02% by volume of surfactant Tween 20) was sprayed onto the stems and leaves in the field. The treatment included spraying 0.02% by volume of surfactant Tween 20 as an auxiliary control, and Atailing (30 g/mu) as a positive control, with two replications per treatment. After the spray, the disease grade of wheat in each treatment group was investigated, and the morbidity degree was recorded according to the grading standard of wheat powdery in the “Pesticides-Guidelines for the Field Efficacy Trails” (I), and the disease index and the relative immunization effect were calculated in the same manner as those of tomato spotted wilt. After the harvested wheat seeds were dried, the thousand grain weight of wheat seeds from different treatments was measured.
Grading Standard of Wheat Powdery Mildew (per leaf): • Grade 1: The area of diseased spots accounts for 5% or less of the whole leaf area; • Grade 3: The area of diseased spots accounts for 6%-15% of the whole leaf; • Grade 5: The area of diseased spots accounts for 16%-25% of the whole leaf; • Grade 7: The area of diseased spots accounts for 26%-50% of the whole leaf; • Grade 9: The area of diseased spots accounts for 50% or more of the whole leaf area.

Row | Compound | drought injury index (%) (wheat; 100 nM) | dry weight (g) aboveground part (wheat; 100 nM) | dry weight (g) underground part (wheat; 100 nM) | fresh weight (g) aboveground part (wheat; 100 nM) | fresh weight (g) underground part (wheat; 100 nM) | length of root (cm) (wheat; 100 nM) | decrease of drought injury index (wheat; 1,000 nM) | increase of fresh weight of aboveground part compared with the control group (wheat; 1,000 nM) | increase of fresh weight of underground part compared with the control group (wheat; 1,000 nM) | increase of root length compared with the control group (wheat; 1,000 nM) | drought injury index (%) (wheat; 1,000 nM) | dry weight (g) aboveground part (wheat; 1,000 nM) | dry weight (g) underground part (wheat; 1,000 nM) | fresh weight (g) aboveground part (wheat; 1,000 nM) | fresh weight (g) underground part (wheat; 1,000 nM) | length of root (cm) (wheat; 1,000 nM) | other results
1 | CC(CCCN)C(N)C(=O)O (stereo not shown) [2,6-diamino-3-methylhexanoic acid] | 40% | 0.94 ± 0.01 b g | 0.42 ± 0.01 b g | 7.70 ± 0.02 b g | 3.79 ± 0.01 b g | 14.35 ± 0.08 b cm | 59% | 31.03% | 34.42% | 9.77% | 21% | 1.05 ± 0.01 a g | 0.49 ± 0.01 a g | 8.99 ± 0.01 a g | 4.59 ± 0.03 a g | 14.63 ± 0.12 a cm | heat injury index (%) (ryegrass; 1 nM): 60%; heat injury index (%) (ryegrass; 10 nM): 54%; heat injury index (%) (ryegrass; 100 nM): 40%; decrease of heat injury index (ryegrass; 1,000 nM): 69%; heat injury index (%) (ryegrass; 1,000 nM): 22%; substrate activity for lysine monooxygenase (lysine monooxygenase): no substrate activity
2 | CC(c1ccccc1)C(N)C(=O)O (stereo not shown) [2-amino-3-phenylbutyric acid] | 46% | 0.87 ± 0.01 b g | 0.38 ± 0.01 b g | 7.51 ± 0.24 b g | 3.77 ± 0.23 b g | 14.23 ± 0.12 a cm | 46% | 46.33% | 55.14% | 11.87% | 27% | 0.94 ± 0.05 a g | 0.43 ± 0.02 a g | 8.97 ± 0.32 a g | 4.53 ± 0.01 a g | 14.70 ± 0.37 a cm | effect on arthritis in rats (arthritis in rats): can alleviate arthritis; effect on growth of Leuconostoc dextranicum (Leuconostoc dextranicum): inhibited the growth; relative immunization effect (%) (wheat powdery mildew): 51.72%; thousand grain weight (wheat powdery mildew): 38.87 g; thousand grain weight (g) (wheat powdery mildew): 38.87 ± 0.20 a g
